What was measured:
[1] = tested on: atabcc1 atabcc2 double knock-out A. thaliana; settings: in vivo
[2] = tested on: A. thaliana mesophyll vacuoles; experiment: PC2 transport into intact vacuoles isolated from A. thaliana mesophyll protoplasts; format: biochemical
AtABCC1 = target: T1, AtABCC1 (Arabidopsis thaliana, UniProt Q9C8G9); experiment: PC2 transport into microsomal vesicles of SM7 yeast expressing AtABCC1; format: biochemical, A. thaliana; settings: vanadate 1 mM, NH4Cl 5 mM, PC 25 μM
T1 construct: expressed in transfected cells; host or cells: Saccharomyces cerevisiae SM7 (ycf1/yhl035c/yll015w/yll048c-deficient, expressing TaPCS1); microsomal vesicles

AtABCC2 = target: T2, AtABCC2 (Arabidopsis thaliana, UniProt Q42093); format: biochemical, A. thaliana
T2 construct: expressed in transfected cells; host or cells: Saccharomyces cerevisiae SM7 (ycf1/yhl035c/yll015w/yll048c-deficient, expressing TaPCS1); microsomal vesicles

[3] = target: PC2-As complex (phytochelatin PC2 in complex with As(III)); experiment: cell-based or functional assay

| Molecule | growth of the atabcc1 atabcc2 knock-out line compared with the wild type [1] | concentration of PC at half maximum of the absorption (transport) activities, 35S-PC2 uptake into yeast SM7 microsomal vesicles [3] [µM] | also measured |
| --- | --- | --- | --- |
| O=[As]([O-])([O-])O.[Na+].[Na+] [As(V), Na2HAsO4] | dramatically inhibited | – | – |
| [Cd] [Cd, cadmium] | dramatically inhibited | – | – |
| [O]=[V]([O-])([O-])[O-] [vanadate] | – | – | residual transport activity (PC transport of isolated vacuoles) [2]: 25±7%; inhibition of absorption of PC2—As complex into the yeast vesicle (AtABCC1): remarkably reduced; inhibition of absorption of PC2—As complex into the yeast vesicle (AtABCC2): remarkably reduced |
| AtABCC1 (from UniProt Q9C8G9 1-1622) | – | 350 | – |
| AtABCC2 (from UniProt Q42093 1-1623) | – | 350 | – |
| arsenite | – | – | transport of arsenic in a non-chelated form (ICP-MS) (AtABCC2): not transported |

From patent publication US20130212738A1, “COMPOSITION FOR PHYTOCHELATIN TRANSPORT” (POSTECH ACADEMY-INDUSTRY FOUNDATION, priority 2010, published 2013)
